17 molecules from USRE43327E1, “Hydrophobic polyamine analogs and methods for their use” (Aminex Therapeutics, Inc., priority 2001, dated 2012) can be followed below.

Where two headings read alike, the source gives them in different places. A value given as a limit tells only on which side of the number the result lay.

Type in all cases: cell-based
In one assay the test system is MDA-MB-231. In words: Growth inhibition assay, PA alone, MDA-MB-231. Conditions: PA alone (no DFMO), six days, repeat determinations, read-out: Cell Line IC50 MDA-MB-231. The method, then: (§1) Medias were obtained from Mediatech, Inc. (Herdon, Va.) and serums from Gibco BRL (Gaithersburg, Md.). 50 U/ml penicillin, 50 μg/ml streptomycin and 2 mM L-glutamine (all from Bio Whittaker, Walkersville, Md.) were included in all cultures. […] When cells were cultured with polyamines or ORI compounds, 1 mM aminoguanidine (AG; Sigma) was included to inhibit serum amine oxidase activity.

A further assay has as its system SK-OV-3. In words: Growth inhibition assay, PA alone, SK-OV-3. To be noted: PA alone (no DFMO), six days, repeat determinations, read-out: Cell Line IC50 SK-OV-3. The method, then:
as §1

In a further assay the test system is A375. In words: Growth inhibition assay, PA alone, A375. Conditions: PA alone (no DFMO), six days, repeat determinations, read-out: Cell Line IC50 A375. How it is done:
as §1

In assay [1] the test system is 4 cell lines (A375, MDA-MB-231, PC-3, SK-OV-3). In words: Growth inhibition with DFMO, average over 4 cell lines. To be noted: with DFMO.
Procedure: Cells were plated in 96-well plates such that they would be in log growth for the duration of the assay. The day after plating, PAs were added to the cells, and growth, if any, permitted to continue for six days in the presence of 1 mM AG and 0.5 μM SPD to insure that any growth inhibition was not the result of depletion of external polyamines in the media. At the end of the six days, cell growth was measured by MTS/PMS dye assay (Cell Titer 96 Aqueous Non-Radioactive Cell Proliferation Assay; Promega, Madison, Wis.).
The next assay concerns PC-3. In words: Growth inhibition assay, PA alone, PC-3. To be noted: PA alone (no DFMO), six days, repeat determinations, read-out: Cell Line IC50 PC-3. The method, then: as §1
The mark [2] stands for this setting: Homo sapiens, MDA-MB-231, 144 h.
[3] abbreviates: Table 3, average over cell lines, read-out: AVG. EC50.
Where [4] appears, read: Table 2, average EC50 for 4 cell lines, read-out: Ave EC50 value.

What is called IC50 is the point on the concentration scale where inhibition reaches its midpoint. By EC50 is commonly meant the concentration needed to bring the measured effect to its halfway point. Consider `CC(C)[C@@H]1CC[C@@H](C)C[C@H]1OCC(=O)NCCCC[C@@H](N)C(=O)NCCCNCCCCNCCCN` [IB38], for which the IC50 in the assay on MDA-MB-231 (setting [2]) came to 63.9 µM; with SK-OV-3 (Homo sapiens, SK-OV-3, 144 h), 60.1 µM; in the assay with A375 (Homo sapiens, A-375, 144 h) it was 21.3 µM; in the assay on PC-3 (Homo sapiens, PC-3, 144 h), 28 µM. In assay [1] (setting [3]), the EC50 was 13.4 µM.

In the case of `NCCCNCCCCNCCCNC(=O)[C@@H](N)CCCCNCC1CCCCC1` [IVA27], the IC50 in the assay on MDA-MB-231, in the assay with SK-OV-3, with A375 and in the assay with PC-3 was above 100 µM each time. Moreover, the half-maximal effective concentration (EC50) in assay [1] (setting [3]) worked out at 4.69 µM.

`CCCCNCCCC[C@@H](N)C(=O)NCCCNCCCCNCCCN` [IVB3]: the IC50 with MDA-MB-231 (setting [2]) was above 100 µM; in the assay with SK-OV-3 (Homo sapiens, SK-OV-3, 144 h), above 100 µM; with A375 (Homo sapiens, A-375, 144 h) it was above 100 µM; in the assay on PC-3 (Homo sapiens, PC-3, 144 h), above 100 µM. In addition, in assay [1] (setting [3]), the EC50 is 2.2 µM.

As to `CCCCCCNCCCC[C@@H](N)C(=O)NCCCNCCCCNCCCN` [IVB5], the IC50 in the assay with MDA-MB-231 (setting [2]) was above 100 µM; in the assay on SK-OV-3 (Homo sapiens, SK-OV-3, 144 h), above 100 µM; in the assay on A375 (Homo sapiens, A-375, 144 h) it was above 100 µM; in the assay on PC-3 (Homo sapiens, PC-3, 144 h), above 100 µM. Also, the EC50 in assay [1] (setting [3]) is 0.868 µM.

For `CCCCCCCNCCCC[C@@H](N)C(=O)NCCCNCCCCNCCCN` [IVB6], the IC50 is above 100 µM with MDA-MB-231 (setting [2]); above 100 µM with SK-OV-3 (Homo sapiens, SK-OV-3, 144 h); above 100 µM with A375 (Homo sapiens, A-375, 144 h); above 100 µM in the assay with PC-3 (Homo sapiens, PC-3, 144 h). The EC50 in assay [1] (setting [3]) is 0.365 µM.

Consider `CC(C)CCNCCCC[C@@H](N)C(=O)NCCCNCCCCNCCCN` [IVB21], for which the half-maximal inhibitory concentration (IC50) in the assay with MDA-MB-231 (setting [2]) is above 100 µM; in the assay on SK-OV-3 (Homo sapiens, SK-OV-3, 144 h), above 100 µM; in the assay on A375 (Homo sapiens, A-375, 144 h), above 100 µM; in the assay on A375, 71 µM; with PC-3 (Homo sapiens, PC-3, 144 h), above 100 µM. The concentration giving a half-maximal response (EC50) in assay [1] (setting [3]) was 1.52 µM.

`CC(C)(C)CCNCCCC[C@@H](N)C(=O)NCCCNCCCCNCCCN` [IVB22]: the IC50 in the assay on MDA-MB-231 (setting [2]) was above 100 µM; with SK-OV-3 (Homo sapiens, SK-OV-3, 144 h), above 100 µM; in the assay with A375 (Homo sapiens, A-375, 144 h) it was above 100 µM; with PC-3 (Homo sapiens, PC-3, 144 h), above 100 µM. The concentration for a half-maximal effect (EC50) in assay [1] (setting [3]) stood at 1.33 µM.

As for `CC(C)CNCCCC[C@@H](N)C(=O)NCCCNCCCCNCCCN` [IVB23], the IC50 in the assay on MDA-MB-231 (setting [2]) is above 100 µM; in the assay with SK-OV-3 (Homo sapiens, SK-OV-3, 144 h), above 100 µM; with A375 (Homo sapiens, A-375, 144 h), above 100 µM; in the assay with PC-3 (Homo sapiens, PC-3, 144 h), above 100 µM. Further, in assay [1] (setting [3]), the EC50 was 1.79 µM.

For the molecule `CC(C)(C)CNCCCC[C@@H](N)C(=O)NCCCNCCCCNCCCN` [IVB24], the half-maximal inhibitory concentration (IC50) was above 100 µM in the assay on MDA-MB-231 (setting [2]); above 100 µM in the assay on SK-OV-3 (Homo sapiens, SK-OV-3, 144 h); above 100 µM with A375 (Homo sapiens, A-375, 144 h); 84.4 µM with A375. The EC50 in assay [1] (setting [3]) was 3.14 µM.

As to `NCCCNCCCCNCCCNC(=O)[C@H](N)CCCCNCC1CC2C=CC1C2` (stereo partly shown) [IVB25], the IC50 in the assay on MDA-MB-231 (setting [2]) is above 100 µM; in the assay with MDA-MB-231, 61 µM; in the assay with PC-3 (Homo sapiens, PC-3, 144 h), above 100 µM. Also, in assay [1] (setting [3]), the EC50 amounted to 0.939 µM.

`NCCCNCCCCNCCCNC(=O)[C@H](N)CCCCNCC1CCCCC1` [IVB27]: the half-maximal inhibitory concentration (IC50) with MDA-MB-231 (setting [2]) is above 100 µM; in the assay on PC-3 (Homo sapiens, PC-3, 144 h) it was above 100 µM. In addition, the EC50 in assay [1] (setting [3]) was 0.414 µM.

Regarding `CC(C)=CCC[C@H](C)CCNCCCC[C@@H](N)C(=O)NCCCNCCCCNCCCN` [IVB28], the concentration for half-maximal inhibition (IC50) with MDA-MB-231 (setting [2]) was determined as 18.9 µM; in the assay on SK-OV-3 (Homo sapiens, SK-OV-3, 144 h), 19.8 µM; in the assay with A375 (Homo sapiens, A-375, 144 h), 5.6 µM; in the assay with PC-3 (Homo sapiens, PC-3, 144 h), 17.8 µM. Besides, the EC50 in assay [1] (setting [3]) was determined as 10.7 µM.

Turning to `NCCCNCCCCNCCCNC(=O)[C@H](N)CCCCNCc1ccc(-c2ccccc2)cc1` [IVB33], the IC50 in the assay with MDA-MB-231 (setting [2]) is above 100 µM; with SK-OV-3 (Homo sapiens, SK-OV-3, 144 h), 72.9 µM; with PC-3 (Homo sapiens, PC-3, 144 h), above 100 µM.

For the molecule `CC(C)(C)CNCCCC[C@H](N)C(=O)NCCCNCCCCNCCCN` [VA22], the half-maximal inhibitory concentration (IC50) with MDA-MB-231 (setting [2]) is above 100 µM; in the assay on SK-OV-3 (Homo sapiens, SK-OV-3, 144 h), above 100 µM; in the assay with A375 (Homo sapiens, A-375, 144 h), above 100 µM; in the assay on A375, 83.5 µM; with PC-3 (Homo sapiens, PC-3, 144 h) it was above 100 µM. In addition, the EC50 in assay [1] (setting [4]) was determined as 2.42 µM; in assay [1] (setting [3]), 6.98 µM.

`CCCC(CCC)NCCCC[C@H](N)C(=O)NCCCNCCCCNCCCN` [VA26]: the IC50 with MDA-MB-231 (setting [2]) is above 100 µM; in the assay on SK-OV-3 (Homo sapiens, SK-OV-3, 144 h) it was above 100 µM; with A375 (Homo sapiens, A-375, 144 h), above 100 µM; in the assay on PC-3 (Homo sapiens, PC-3, 144 h) it was above 100 µM. The EC50 in assay [1] (setting [3]) stood at 3.91 µM.

Consider `NCCCNCCCCNCCCNC(=O)[C@@H](N)CCCCNCC12CC3CC(CC(C3)C1)C2` [VA27], for which the half-maximal inhibitory concentration (IC50) was above 100 µM in the assay on MDA-MB-231 (setting [2]); above 100 µM in the assay with SK-OV-3 (Homo sapiens, SK-OV-3, 144 h); above 100 µM in the assay with A375 (Homo sapiens, A-375, 144 h); above 100 µM with PC-3 (Homo sapiens, PC-3, 144 h). The EC50 stood at 26.8 µM in assay [1] (setting [4]) and 6.45 µM in assay [1] (setting [3]).

Consider `CC(C)[C@@H]1CC[C@@H](C)CC1NCCCC[C@@H](N)C(=O)NCCCNCCCCNCCCN` (stereo partly shown) [VB28], for which the IC50 is above 100 µM with MDA-MB-231 (setting [2]); above 100 µM in the assay with SK-OV-3 (Homo sapiens, SK-OV-3, 144 h); above 100 µM with A375 (Homo sapiens, A-375, 144 h); 64.5 µM in the assay on A375; above 100 µM with PC-3 (Homo sapiens, PC-3, 144 h). Further, the EC50 in assay [1] (setting [3]) was found to be 0.905 µM.
